Assay results published in patent publication US20210293825A1, “METHODS FOR PRECISION THERAPEUTIC TARGETING OF HUMAN CANCER CELL MOTILITY AND KITS THEREOF” (UNITED STATES GOVERNMENT AS REPRESENTED BY THE DEPARTMENT …, priority 2018, published 2021).

How the values were obtained:
[1] = test system: estrogen-responsive genes in MCF-7 cells; assay: Induction of estrogen-responsive genes (qRT/PCR); format: cell-based, human
From the text: FIG. 1a is a schematic flow of probe synthesis and development strategy. […] Values are mean±SEM of a single experiment in replicates of N=4, with similar findings in multiple separate experiments (also N=4). […] Values are mean±SEM of a single experiment in replicates of N=24, with similar findings in a separate experiment (also N=24). *Denotes Student's t test P value <0.05, compared to controls. […] Values are mean±SEM from N>2 separate experiments, each in replicates of N=3. […] Values are the mean±SD number of total, CFU-GM, CFU-GEMM or BFU-E colonies at 14 days after treatment with KBU2046, from a single experiment in replicates of N=2. […] Values are the mean±SD of a single experiment, with similar results seen in a separate experiment, both in replicates of N=2.
Quantitative Reverse Transcriptase Polymerase Chain Reaction. RNA was isolated and qRT/PCR was performed as described (Ding, Y. et al., J Biomol Tech 18, 321-30 (2007)), analyzed by the 2^−ΔΔCt method (Livak, K. J. et al., Methods 25, 402-8 (2001)), using primer/probes sets (ABI), HSP90α (Hs00743767_sH), HSP90β (Hs00427665_g1), trefoil factor 1 (TFF1; Hs00907239 ml), cathepsin D (CTSD; Hs00157205_m1), progesterone receptor (PGR; Hs01556702 ml) and GAPDH (Hs99999905_m1). Assays were repeated, each in replicates of N=2.

panel of 284 kinases = assay: KinaseProfiler radiometric assay platform (Millipore); format: biochemical; details: competition with ATP
From the text: Kinase assay system #3. KinaseProfiler™ and PhosphataseProfiler™ assay platforms (Millipore). This platform is radiometric-based (considered gold standard). It measures competition with respect to ATP for kinases and substrate protein for phosphatases. Most proteins were expressed via an insect-based system, and it evaluates a panel of 284 kinases and 20 phosphatases. […] Important negative findings include: MKK4, MKK6, p38 MAPK, MAPKAPK2, RAF1, ERK, MEK1, JNK1, 2 and 3, and numerous other MAPK cascade-associated kinases.

[2] = Pharmacokinetics after oral gavage or intravenous injection; format: in vivo, CD1 mice; details: after a single oral dose
Procedure: (§1) Cohorts of N=12 athymic mice bearing human PCa PC3-M cell orthotopic implants (a), or of N=5 non-tumor bearing athymic mice (b), were treated with KBU2046 incorporated into chow, and resultant lung metastasis (a) or plasma KBU2046 concentration (b) measured. Values are the mean±SEM. The relationship between dose and metastasis was evaluated by two-sided ANOVA (a). FIG. 2c a comprehensive characterization of KBU2046 pharmacokinetics. CD1 mice were dosed with 100 mg KBU2046/kg via oral gavage or intravenous injection (iv), and blood collected at the indicated time points (data from mice dosed at 25 mg/kg are in FIG. 12, and corroborate 100 mg/kg findings). For each route and time point, N=3 mice were sampled. Individual data points are the resultant plasma concentrations from individual mice, and are the mean of N=2 measurements. The dotted horizontal line denotes a concentration of 24 nM, which was the concentration of KBU2046 measured in the blood of mice whose metastasis were suppressed by 92% (a-b). […]
KBU2046 Quantification and Pharmacokinetics. […]
Plasma KBU2046 concentrations were measured in duplicate by liquid chromatography-tandem mass spectrometry after sample preparation by solid-phase extraction. […] The mass-to-charge ratios of the precursor-to-product ion reactions monitored were 243.5→125.1 for KBU2046 and 257.0→165.0 for the internal standard. […]

[3] = test system: human PCa PC3-M cell orthotopic implants; assay: Murine orthotopic implantation model of human PCa (lung metastasis); format: in vivo, athymic mice; details: mice treated as in FIG. 2a
Procedure: as §1, with “For each route and time point, N=3 mice were sampled. Individual data points are the resultant plasma concentrations from individual mice, and are the mean of N=2 measurements.” left out
Prostate cancer: orthotopic implantation. Orthotopic implantation of human GFP-PC3-M PCa cells into 6-8 week male Balb/c athymic mice (Charles River Laboratories) and quantification of distant metastasis was performed as described (Pavese, J. et al., J Vis Exp, e50873 (2013)). […] Metastasis were scored in a blinded fashion. Specifically, animals were assigned an ID number, resultant histologic slides contained a separate pathological ID number, slides were scored in a random fashion, after which the two numbers were linked up.

PC3-M cells = assay: Three day MTT cell growth inhibition assay, PC3-M cells; format: cell-based, human

O=C1c2ccccc2OCC1c1ccc(F)cc1 (racemic) [KBU2046, (±)-3(4-fluorophenyl)chroman-4-one]
activation of estrogen-responsive genes [1]: did not activate estrogen-responsive genes
inhibition of kinase activity (panel of 284 kinases): no evidence that KBU2046 inhibits kinase activity
maintenance of plasma concentrations >24 nM [2]: 9.3 h
primary tumor growth (tumor weight) [3]: does not inhibit primary tumor cell growth
cell growth inhibition (PC3-M cells): no growth inhibitory effects
